Laboratory results from PubChem BioAssay (NCI).
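A five-concentration, 48-hour dose response in 96-well plates underlies each endpoint, interpolated linearly between surrounding concentrations. TGI denotes the concentration required for complete inhibition of growth.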

Tests used:
Assay in all cases: growth of human tumour cells (NCI), 48 h
SK-MEL-5 melanoma = test system: SK-MEL-5 melanoma
RXF 393 renal = test system: RXF 393 renal
MDA-N = test system: MDA-N
SNB-75 CNS = test system: SNB-75 CNS
CAKI-1 renal = test system: CAKI-1 renal
SK-MEL-2 melanoma = test system: SK-MEL-2 melanoma
SW-620 colon = test system: SW-620 colon
M14 melanoma = test system: M14 melanoma
SNB-19 CNS = test system: SNB-19 CNS
HOP-18 NSCLC = test system: HOP-18 NSCLC
SNB-78 CNS = test system: SNB-78 CNS
KM20L2 colon = test system: KM20L2 colon

In the case of Nc1ncn2c(n1)nc1ccccc12, the TGI (SK-MEL-5 melanoma) is reported as > 100 µM, the TGI (RXF 393 renal) is reported as > 100 µM and the TGI (MDA-N) is reported as > 100 µM. For the same compound, the TGI (SNB-75 CNS) was 78.9 µM, the TGI (CAKI-1 renal) was > 100 µM and the TGI (SK-MEL-2 melanoma) was > 100 µM. The TGI (SW-620 colon) was > 100 µM, the TGI (M14 melanoma) was > 100 µM and the TGI (SNB-19 CNS) was > 100 µM.
Cc1c(N=Nc2ccccc2)c(C)n(C2OC(CO)C(O)C(O)C2O)c(=S)c1C#N (centres undefined) was tested, and the TGI (SK-MEL-5 melanoma) was 25 µM, the TGI (RXF 393 renal) was > 100 µM and the TGI (MDA-N) was > 100 µM. The TGI (SNB-75 CNS) was > 100 µM, the TGI (CAKI-1 renal) was > 100 µM and the TGI (SK-MEL-2 melanoma) was 90.2 µM. For the same compound, the TGI (SW-620 colon) was > 100 µM, the TGI (M14 melanoma) was 65.8 µM and the TGI (SNB-19 CNS) was 96.2 µM.
In the case of CCOC(=O)C(Cc1c[nH]c2cc([N+](=O)[O-])ccc12)NS(=O)(=O)c1ccc2ccccc2c1 (centres undefined), the TGI (RXF 393 renal) is reported as 37.8 µM, the TGI (HOP-18 NSCLC) is reported as > 100 µM and the TGI (SNB-75 CNS) is reported as 50.4 µM. The TGI (SK-MEL-2 melanoma) was 35.1 µM, the TGI (SW-620 colon) was 44.4 µM and the TGI (M14 melanoma) was 34.1 µM. For the same compound, the TGI (SNB-78 CNS) was 47.7 µM, the TGI (SNB-19 CNS) was > 100 µM and the TGI (KM20L2 colon) was 33.9 µM.
With O=c1[nH]cc(Cl)c(=O)[nH]1 the TGI (SK-MEL-5 melanoma) was > 100 µM, the TGI (RXF 393 renal) was > 100 µM and the TGI (MDA-N) was > 100 µM. For the same compound, the TGI (SNB-75 CNS) was > 100 µM, the TGI (CAKI-1 renal) was > 100 µM and the TGI (SK-MEL-2 melanoma) was > 100 µM. The TGI (SW-620 colon) was > 100 µM, the TGI (M14 melanoma) was > 100 µM and the TGI (SNB-19 CNS) was > 100 µM.
In the case of O=C1CC(c2ccccc2)=Nc2ccccc2N1, the TGI (SK-MEL-5 melanoma) is reported as > 100 µM, the TGI (RXF 393 renal) is reported as > 100 µM and the TGI (HOP-18 NSCLC) is reported as > 100 µM. The TGI (SNB-75 CNS) was > 100 µM, the TGI (CAKI-1 renal) was > 100 µM and the TGI (SK-MEL-2 melanoma) was > 100 µM. The TGI (SW-620 colon) was 51.8 µM, the TGI (M14 melanoma) was > 100 µM and the TGI (SNB-78 CNS) was > 100 µM. For the same compound, the TGI (SNB-19 CNS) was > 100 µM and the TGI (KM20L2 colon) was > 100 µM.
O=C(CSc1nc(-c2ccccc2)c(-c2ccccc2)[nH]1)N/N=C/c1ccc(O)cc1 was tested, and the TGI (RXF 393 renal) was 61.4 µM, the TGI (HOP-18 NSCLC) was > 100 µM and the TGI (SNB-75 CNS) was 52.7 µM. For the same compound, the TGI (SK-MEL-2 melanoma) was 67.2 µM, the TGI (SW-620 colon) was > 100 µM and the TGI (M14 melanoma) was 40.6 µM. For the same compound, the TGI (SNB-78 CNS) was > 100 µM, the TGI (SNB-19 CNS) was > 100 µM and the TGI (KM20L2 colon) was 55.8 µM.
In the case of Cc1cc(S(=O)(=O)Nc2nnc3cnc4ccccc4n23)c(S)cc1Cl, the TGI (SK-MEL-5 melanoma) is reported as > 85.9 µM, the TGI (RXF 393 renal) is reported as > 100 µM and the TGI (MDA-N) is reported as > 100 µM. For the same compound, the TGI (SNB-75 CNS) was > 100 µM, the TGI (CAKI-1 renal) was > 100 µM and the TGI (SK-MEL-2 melanoma) was > 100 µM. For the same compound, the TGI (SW-620 colon) was > 100 µM, the TGI (M14 melanoma) was > 100 µM and the TGI (SNB-19 CNS) was > 100 µM.
Compound O=C(CCC=C(S(=O)(=O)c1ccccc1)S(=O)(=O)c1ccccc1)c1ccccc1 has a TGI (SK-MEL-5 melanoma) of 19.8 µM, a TGI (RXF 393 renal) of 20 µM and a TGI (MDA-N) of 14.8 µM. The TGI (SNB-75 CNS) was 9.57 µM, the TGI (CAKI-1 renal) was 31.1 µM and the TGI (SK-MEL-2 melanoma) was 9.7 µM. For the same compound, the TGI (SW-620 colon) was 15 µM, the TGI (M14 melanoma) was 20.9 µM and the TGI (SNB-19 CNS) was 28.4 µM.
For NC1=NS(=O)(=O)Nc2nc(-c3ccccc3)[nH]c21, the TGI (SK-MEL-5 melanoma) was > 100 µM, the TGI (RXF 393 renal) was > 100 µM and the TGI (HOP-18 NSCLC) was > 100 µM. For the same compound, the TGI (SNB-75 CNS) was > 100 µM, the TGI (SK-MEL-2 melanoma) was > 100 µM and the TGI (SW-620 colon) was > 100 µM. The TGI (M14 melanoma) was > 100 µM, the TGI (SNB-78 CNS) was > 100 µM and the TGI (SNB-19 CNS) was > 100 µM. For the same compound, the TGI (KM20L2 colon) was > 100 µM.
CC(=O)Nc1ccc2[nH]c(C(=O)N3CC(CCl)c4c3cc([N+](=O)[O-])c3ccccc43)cc2c1 (centres undefined) was tested, and the TGI (SK-MEL-5 melanoma) was > 100 µM, the TGI (RXF 393 renal) was 32.7 µM and the TGI (MDA-N) was > 100 µM. The TGI (SNB-75 CNS) was > 64.4 µM, the TGI (CAKI-1 renal) was > 29.9 µM and the TGI (SK-MEL-2 melanoma) was > 69.5 µM. The TGI (SW-620 colon) was > 100 µM, the TGI (M14 melanoma) was > 100 µM and the TGI (SNB-19 CNS) was > 100 µM.
With Cc1csc2c1-n1cccc1C2=O the TGI (SK-MEL-5 melanoma) was > 100 µM, the TGI (RXF 393 renal) was > 100 µM and the TGI (MDA-N) was > 100 µM. The TGI (SNB-75 CNS) was > 100 µM, the TGI (CAKI-1 renal) was > 100 µM and the TGI (SK-MEL-2 melanoma) was > 100 µM. For the same compound, the TGI (SW-620 colon) was > 100 µM, the TGI (M14 melanoma) was > 100 µM and the TGI (SNB-19 CNS) was > 100 µM.
With O=[N+]([O-])C(/C=N/Nc1ccccc1)/C=N/Nc1ccccc1 the TGI (SK-MEL-5 melanoma) was > 100 µM, the TGI (RXF 393 renal) was > 100 µM and the TGI (HOP-18 NSCLC) was > 100 µM. For the same compound, the TGI (SNB-75 CNS) was > 100 µM, the TGI (CAKI-1 renal) was > 100 µM and the TGI (SK-MEL-2 melanoma) was > 100 µM. The TGI (SW-620 colon) was > 100 µM, the TGI (M14 melanoma) was > 100 µM and the TGI (SNB-78 CNS) was > 100 µM. The TGI (SNB-19 CNS) was > 100 µM and the TGI (KM20L2 colon) was > 100 µM.
O=C(Nc1cccc([N+](=O)[O-])c1)c1n[nH]n(-c2cccc([N+](=O)[O-])c2)c1=O was tested, and the TGI (SK-MEL-5 melanoma) was > 100 µM, the TGI (RXF 393 renal) was > 100 µM and the TGI (MDA-N) was > 100 µM. The TGI (SNB-75 CNS) was > 100 µM, the TGI (CAKI-1 renal) was > 100 µM and the TGI (SK-MEL-2 melanoma) was > 100 µM. The TGI (SW-620 colon) was > 100 µM, the TGI (M14 melanoma) was > 100 µM and the TGI (SNB-19 CNS) was > 100 µM.
O=C(/C=C/c1cccc(Oc2ccccc2)c1)NCc1ccc(C(=O)NCCc2ccccc2)cc1 was tested, and the TGI (SK-MEL-5 melanoma) was > 100 µM, the TGI (RXF 393 renal) was 61.1 µM and the TGI (MDA-N) was > 100 µM. The TGI (SNB-75 CNS) was 92.6 µM, the TGI (CAKI-1 renal) was > 100 µM and the TGI (SK-MEL-2 melanoma) was > 100 µM. For the same compound, the TGI (SW-620 colon) was > 100 µM, the TGI (M14 melanoma) was > 100 µM and the TGI (SNB-19 CNS) was > 100 µM.
With CSc1ccn(C2CC(F)C(CO)O2)c(=O)n1 (centres undefined) the TGI (SK-MEL-5 melanoma) was > 100 µM, the TGI (RXF 393 renal) was > 100 µM and the TGI (MDA-N) was > 100 µM. The TGI (SNB-75 CNS) was > 100 µM, the TGI (CAKI-1 renal) was > 100 µM and the TGI (SK-MEL-2 melanoma) was > 100 µM. The TGI (SW-620 colon) was > 100 µM, the TGI (M14 melanoma) was > 100 µM and the TGI (SNB-19 CNS) was > 100 µM.
Work on Cc1ccc(-c2nc(N/N=C/c3ccc(O)cc3)c3ccccc3n2)cc1 yielded a TGI (SK-MEL-5 melanoma) of 15.4 µM, a TGI (RXF 393 renal) of 76 µM and a TGI (MDA-N) of 23.7 µM. It also gave a TGI (SNB-75 CNS) of 64 µM, a TGI (CAKI-1 renal) of 31.8 µM and a TGI (SK-MEL-2 melanoma) of 32.7 µM. The TGI (SW-620 colon) was > 100 µM, the TGI (M14 melanoma) was 18.9 µM and the TGI (SNB-19 CNS) was > 100 µM.
